This assay addresses T1, RIP1 (Homo sapiens, UniProt Q13546).
T1 sequence (Q13546 1-671): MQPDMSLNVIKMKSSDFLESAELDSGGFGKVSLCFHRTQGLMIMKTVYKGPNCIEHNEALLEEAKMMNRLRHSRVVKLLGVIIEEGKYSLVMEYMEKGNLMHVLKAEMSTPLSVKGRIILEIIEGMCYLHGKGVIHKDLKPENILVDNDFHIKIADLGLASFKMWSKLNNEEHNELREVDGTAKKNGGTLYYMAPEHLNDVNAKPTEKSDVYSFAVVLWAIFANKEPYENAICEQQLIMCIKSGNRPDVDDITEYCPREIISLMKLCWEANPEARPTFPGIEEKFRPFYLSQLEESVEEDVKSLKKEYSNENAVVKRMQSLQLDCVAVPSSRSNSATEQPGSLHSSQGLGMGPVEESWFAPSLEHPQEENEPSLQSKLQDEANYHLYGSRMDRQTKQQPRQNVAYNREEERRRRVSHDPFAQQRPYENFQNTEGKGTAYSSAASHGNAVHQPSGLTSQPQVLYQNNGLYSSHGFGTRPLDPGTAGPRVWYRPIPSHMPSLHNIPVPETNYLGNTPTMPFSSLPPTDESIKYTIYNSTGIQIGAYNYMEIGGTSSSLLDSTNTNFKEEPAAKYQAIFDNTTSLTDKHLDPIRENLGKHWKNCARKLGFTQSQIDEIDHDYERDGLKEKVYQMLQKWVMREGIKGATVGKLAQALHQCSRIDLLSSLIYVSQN
The assay can be described thus: Cellular RIP1 inhibitory activity: HT-29 necroptosis (TNFα/SMAC mimetic/zVAD-FMK) CellTiter-Glo viability assay. As to conditions: HT-29 cells, TNF-α 10 ng/ml + SMAC mimetic 6 μM + zVAD-FMK 10 μM, 20 hours, geometric mean, read-out: EC50 Values of in vitro Cellular RIP1 Inhibitory Activity. It is filed as cell-based. Background: Cellular ATP, detected with luciferase, serves as a proxy for viable cell number.

As usually defined, the EC50 is the midpoint of the concentration-response curve. Take `Cc1cnn(C)c1-c1nc(N2CCC(C(=O)N(O)Cc3cccnc3)CC2)ncc1F` [Compound 38, 1-(4-(1,4-dimethyl-1H-pyrazol-5-yl)-5-fluoropyrimidin-2-yl)-N-hydroxy-N-(pyridin-3-ylmethyl)piperidine-4-carboxamide]: the EC50 lay in the range of 0.0001 to 0.1 µM.

`[2H]C([2H])([2H])N(Cc1nc(C)cs1)C(=O)C1CCN(c2ncc(F)c(-c3c(C)cnn3C)n2)CC1` [Compound 78, 1-(4-(1,4-dimethyl-1H-pyrazol-5-yl)-5-fluoropyrimidin-2-yl)-N-(methyl-d3)-N-((4-methylthiazol-2-yl)methyl)piperidine-4-carboxamide]: the EC50 was in the range of 0.0001 to 0.1 µM.

Regarding `Cc1nc(C)n(-c2nc(N3CCC(C(=O)N(O)Cc4ccccn4)CC3)ncc2F)n1` [Compound 7, 1-(4-(3,5-dimethyl-1H-1,2,4-triazol-1-yl)-5-fluoropyrimidin-2-yl)-N-h ydroxy-N-(pyridin-2-ylmethyl)piperidine-4-carboxamide], the EC50 fell in the range of 0.1 to 1 µM.

Regarding `CCN(Cc1cnn(C)c1)C(=O)C1CCN(c2ncc(F)c(-c3c(C)cnn3C)n2)CC1` [Compound 84, 1-(4-(1,4-dimethyl-1H-pyrazol-5-yl)-5-fluoropyrimidin-2-yl)-N-ethyl-N-((1-methyl-1H-pyrazol-4-yl)methyl)piperidine-4-carboxamide], the EC50 is 0.1 to 1 µM.

In the case of `Cc1cnn(C)c1-c1nc(N2CCC(C(=O)NCc3cc(C)n(C)n3)CC2)ncc1F` [Compound 43, N-((1,5-dimethyl-1H-pyrazol-3-yl)methyl)-1-(4-(1,4-dimethyl-1H-pyrazol-5-yl)-5-fluoropyrimidin-2-yl)piperidine-4-carboxamide], the EC50 fell in the range of 1 to 10 µM.

Turning to `Cc1cnn(C)c1-c1cc(N2CCC(C(=O)NCc3nccs3)CC2)c(F)cn1` [Compound 63, 1-(2-(1,4-dimethyl-1H-pyrazol-5-yl)-5-fluoropyridin-4-yl)-N-(thiazol-2-ylmethyl)piperidine-4-carboxamide], the EC50 was 0.1 to 1 µM.

`[2H]C([2H])([2H])N(Cc1nccs1)C(=O)C1CCN(c2ncc(F)c(-c3c(C)cnn3C)n2)CC1` [Compound 77, 1-(4-(1,4-dimethyl-1H-pyrazol-5-yl)-5-fluoropyrimidin-2-yl)-N-(methyl-d3)-N-(thiazol-2-ylmethyl)piperidine-4-carboxamide]: the EC50 lay within 0.0001 to 0.1 µM.

In the case of `Cc1cnn(C)c1-c1nc(N2CCC(C(=O)N(O)Cc3nccn3C)CC2)ncc1F` [Compound 39, 1-(4-(1,4-dimethyl-1H-pyrazol-5-yl)-5-fluoropyrimidin-2-yl)-N-hydroxy-N-((1-methyl-1H-imidazol-2-yl)methyl)piperidine-4-carboxamide], the 50% effective concentration (EC50) lay in the range of 1 to 10 µM.

As for `Cc1nc(C)n(-c2nc(N3CCC(F)(C(=O)N(O)Cc4cc(F)cc(F)c4)CC3)ncc2F)n1` [Compound 14, N-(3,5-difluorobenzyl)-1-(4-(3,5-dimethyl-1H-1,2,4-triazol-1-yl)-5-fluoropyrimidin-2-yl)-4-fluoro-N-hydroxypiperidine-4-carboxamide], the EC50 lay within 0.0001 to 0.1 µM.

Turning to `Cc1nc(C)n(-c2nc(N3CCC(C(=O)N(C)Cc4cc(F)cc(F)c4F)CC3)ncc2F)n1` [Compound 65, 1-(4-(3,5-dimethyl-1H-1,2,4-triazol-1-yl)-5-fluoropyrimidin-2-yl)-N-methyl-N-(2,3,5-trifluorobenzyl)piperidine-4-carboxamide], the concentration giving a half-maximal response (EC50) is 0.0001 to 0.1 µM.

Turning to `Cc1nnc(CNC(=O)C2CCN(c3ncc(F)c(-c4c(C)cnn4C)n3)CC2)s1` [Compound 46, 1-(4-(1,4-dimethyl-1H-pyrazol-5-yl)-5-fluoropyrimidin-2-yl)-N-((5-methyl-1,3,4-thiadiazol-2-yl)methyl)piperidine-4-carboxamide], the EC50 was in the range of 1 to 10 µM.

`Cc1csc(CNC(=O)C2CCN(c3ncc(F)c(-c4c(C)cnn4C)n3)CC2)n1` [Compound 47, 1-(4-(1,4-dimethyl-1H-pyrazol-5-yl)-5-fluoropyrimidin-2-yl)-N-((4-methylthiazol-2-yl)methyl)piperidine-4-carboxamide]: the EC50 was in the range of 0.1 to 1 µM.

The values are drawn from patent US20240217963A1, “RECEPTOR-INTERACTING PROTEIN 1 INHIBITORS, PREPARATIONS, AND USES THEREOF” (SIRONAX LTD., priority 2021, published 2024).
